Measurements published in patent US20030161893A1, “PTPase inhibitors and methods of using the same” (priority 2001, published 2003).

Key:
MKP1 = target: T1, MKP1 (Homo sapiens, UniProt P28562); experiment: In vitro PTPase assay, GST/MKP1 fusion protein; type: biochemical
T1 construct: a pGEX construct containing the coding region of MKP1 cDNA derived by RT-PCR; made in house; host or cells: DH5a bacteria (E. coli)
T1 sequence (P28562 1-367): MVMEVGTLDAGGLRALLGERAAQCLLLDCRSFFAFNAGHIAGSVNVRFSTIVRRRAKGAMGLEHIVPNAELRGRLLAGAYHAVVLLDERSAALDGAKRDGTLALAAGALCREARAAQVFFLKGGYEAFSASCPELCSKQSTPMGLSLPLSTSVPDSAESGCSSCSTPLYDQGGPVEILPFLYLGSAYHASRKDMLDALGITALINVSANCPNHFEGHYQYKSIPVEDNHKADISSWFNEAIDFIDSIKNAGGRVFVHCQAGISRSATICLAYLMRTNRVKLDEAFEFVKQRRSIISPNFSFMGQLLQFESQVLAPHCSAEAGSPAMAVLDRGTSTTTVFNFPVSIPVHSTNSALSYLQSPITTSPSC

PRL-1 = target: T2, PRL-1 (Homo sapiens, UniProt Q93096); experiment: In vitro PTPase assay, recombinant PRL-1; type: biochemical; details: 0.1-100 μg/ml
T2 construct: cDNAs of human PRL-1, PRL-2 and PRL-3 coding region were derived by RT-PCR from H9 cells; made in house; host or cells: DH5a bacteria (E. coli)
Excerpt: (§1) Sodium stibogluconate, suramin, sodium orth ovanadate and GST fusion protein of SHP-1 have been described previously (Pathak et al., J. Imumol. 167, 3391 (2001)). Meglumine antimonate was obtained from Aventis. cDNAs of human PRL-1, PRL-2 and PRL-3 coding region were derived by RT-PCR from H9 cells (Safai, et al., Lancet 1, 1438 (1984)) and inserted in frame into the pGEX vector. cDNA of PRL-1R86 was generated by recombinant DNA technique using PRL-1 cDNA as template following established procedures (Jiao, et al., Mol. Cell. Biol. 16, 6985 (1996)). […]
(§2) In vitro PTPase assays were used to determine the effects of compounds on recombinant PTPases, following established procedures using a synthetic phosphotyrosine peptide or DiFMUP as the substrate (Pathak et al., J. Imumol. 167, 3391 (2001)). […] PTPase activity of individual reactions was measured by adding 100 μL of malachite green solution (UBI) and then quantifying the amounts of free phosphate cleaved by the PTPase from the peptide substrate by spectrometry (OD660 nm). […] Relative PTPase activities were calculated based on the formula: (PTPase activity in the presence of an inhibitory compound/PTPase activity in the absence of the compound)×100%. […]

PRL-3 = target: T3, PRL-3 (Homo sapiens, UniProt O75365); experiment: In vitro PTPase assay, recombinant PRL-3; type: biochemical; details: 0.1-100 μg/ml
T3 construct: cDNAs of human PRL-1, PRL-2 and PRL-3 coding region were derived by RT-PCR from H9 cells; made in house; host or cells: DH5a bacteria (E. coli)
Excerpt: Sodium stibogluconate, suramin, sodium orth ovanadate and GST fusion protein of SHP-1 have been described previously (Pathak et al., J. Imumol. 167, 3391 (2001)). Meglumine antimonate was obtained from Aventis. cDNAs of human PRL-1, PRL-2 and PRL-3 coding region were derived by RT-PCR from H9 cells (Safai, et al., Lancet 1, 1438 (1984)) and inserted in frame into the pGEX vector. cDNA of PRL-1R86 was generated by recombinant DNA technique using PRL-1 cDNA as template following established procedures (Jiao, et al., Mol. Cell. Biol. 16, 6985 (1996)). GST fusion proteins of the PRL phosphatases were prepared from DH5a bacteria transformed with the pGEX fusion protein constructs as described previously (Yi, et al., Mol. Cell. Biol. 12, 836 (1992)). cDNAs encoding the PRLs tagged at the N-termini with the Flag epitope (Castrucci, et al., J. Virol. 66, 4647 (1992)) were generated via recombinant DNA technique, sequenced to confirm their identities and cloned into the pBabepuro vector (Yang, et al., Blood 91, 3746 (1998)). Anti-Flag monoclonal antibody (M2, Sigma) was purchased from a commercial source. A synthetic phosphotyrosine peptide (Arg-Arg-Leu-Ile-Glu-Asp-Ala-Gle-Tyr-Ala-Ala-Arg-Gly (SEQ ID NO: 3), wherein the tyrosine is phosphorylated; UBI) and DiFMUP (6, 8-difluoro-4-methylumbelliferyl phosphate, Molecular Probes) were purchased as substrates for PTPase assays.
In vitro PTPase assays were used to determine the effects of compounds on recombinant PTPases, following established procedures using a synthetic phosphotyrosine peptide or DiFMUP as the substrate (Pathak et al., J. Imumol. 167, 3391 (2001)). Briefly, individual PTPases (0.1 μg/reaction) in 50 μL of PTPase buffer (50 mM Tris, pH 7.4) were incubated at 22° C. for 10 minutes or as indicated in the absence or presence of inhibitory compounds. Substrates (0.2 mM phosphotyrosine peptide) were then added and allowed to react at 22° C. for 18 hrs. PTPase activity of individual reactions was measured by adding 100 μL of malachite green solution (UBI) and then quantifying the amounts of free phosphate cleaved by the PTPase from the peptide substrate by spectrometry (OD660 nm). PTPase assays using DiFMUP as a substrate were conducted following a previously described procedure (Matter, et al., Biochem. Biophys. Res. Comm. 283, 1061 (2001)). Relative PTPase activities were calculated based on the formula: (PTPase activity in the presence of an inhibitory compound/PTPase activity in the absence of the compound)×100%. To assess the reversibility of PTPase inhibition, GST fusion proteins of the PTPases bound on glutathione beads (Pharmacia) were pre-incubated with cold Tris buffer (50 mM Tris, pH 7.0) or Tris buffer containing the inhibitor at 4° C. for 30 minutes. The beads were then washed three times in cold Tris buffer or not washed prior to subjecting to in vitro PTPase assays.

GSTm8 = experiment: In vitro PTPase assay, GSTm8; type: biochemical; details: 3-4 μg/ml or 10-100 μg/ml
SHP-1 = target: T4, SHP-1 (Mus musculus, UniProt P29351); experiment: In vitro PTPase assay, GST/SHP-1 fusion protein; type: biochemical; details: 3-4 μg/ml or 10-100 μg/ml
T4 construct: made in house
Protocol: In vitro PTPase activities were measured using the commercial protein tyrosine phosphatase assay kit (Upstate Biotechnology, Inc. (“UBI”)) following established procedure known to one of skill in the art. […] 100 μl of Malachite Green solution was added and incubated for 5 minutes, and the absorbance at 660 nm was measured after 5 minutes.
The beads were then either subjected to in vitro PTPase assays or washed 3 times in Tris buffer then subjected to in vitro PTPase assays.
Briefly, individual PTPases (0.1 μg/reaction) in 50 μL of PTPase buffer (50 mM Tris, pH 7.4) were incubated at 22° C. for 10 minutes or as indicated in the absence or presence of inhibitory compounds. […] […] […] Relative PTPase activities were calculated based on the formula: (PTPase activity in the presence of an inhibitory compound/PTPase activity in the absence of the compound)×100%. To assess the reversibility of PTPase inhibition, GST fusion proteins of the PTPases bound on glutathione beads (Pharmacia) were pre-incubated with cold Tris buffer (50 mM Tris, pH 7.0) or Tris buffer containing the inhibitor at 4° C. for 30 minutes. The beads were then washed three times in cold Tris buffer or not washed prior to subjecting to in vitro PTPase assays.

PRL-2 = target: T5, PRL-2 (Homo sapiens, UniProt Q12974); experiment: In vitro PTPase assay, recombinant PRL-2; type: biochemical
T5 construct: cDNAs of human PRL-1, PRL-2 and PRL-3 coding region were derived by RT-PCR from H9 cells; made in house; host or cells: DH5a bacteria (E. coli)
Excerpt: as §1, §2

WM9 cells = experiment: Cell proliferation assay (MTT), WM9 melanoma cells; type: cell-based, human
Protocol: For cell proliferation assays, cells were grown in 10% FCS culture medium containing various amounts of IFNs and/or sodium stibogluconate in 96 well plates and cultured at 37° C. for 3 or 6 days as indicated. The numbers of viable cells in proliferation assays were determined by MTT assays as described in Phatak et al., J. Immunol. 167, 3391 (2001).
Dose response curves were generated for each drug alone, and also the combinations. Median effect plots were generated for IFNs alone, sodium stibogluconate alone, and the combination. The combination index (CI) was determined and plotted vs. fraction affected (FA). Data were analyzed in both modes, mutually exclusive and mutually nonexclusive. The interaction between two mutually nonexclusive drugs is described by the Equation CI=D1/D×1+D2/D×2+D1D2/D×1D×2, where D×1 and D×2 are the doses of drug 1 and drug 2 that are required to inhibit growth×%. […] When CI<1, drugs are synergistic, when CI=1, drugs are additive, and when CI>1, drugs are antagonistic.

NB4 cells = experiment: NB4 cell differentiation (NBT reduction, CD11b); type: cell-based, human
Protocol: (§3) Differentiation of AML cell lines was assessed by their ability to produce superoxide as measured by reduction of NBT to formazan and by analysis of expression of CD11b surface marker by flow cytometry. For NBT reduction, each cell suspension was mixed with an equal volume of solution containing 1 mg/ml of NBT (Sigma) and 2.5 μg/ml of TPA for 30 minutes at 37° C. After incubation, cells containing the purple formazan deposits and cells devoid of NBT-reducing activity (white cells) in each sample were determined by counting 200 cells under microscope. Data is expressed as a percentage based on the following ratio: purple cells/purple+white cells. For analysis of cell surface antigens, cells were exposed to phycoerythrin (PE)-conjugated murine anti-human CD11b (DAKO Corp., Carpinteria, Calif.). Analysis of fluorescence was performed on a FACScan flow cytometer (Beckton Dickinson, Mountain View, Calif.).

U937 cells = experiment: U937 cell differentiation (NBT reduction); type: cell-based, human; details: GM-CSF 25 ng/ml alone, day 6
Protocol: as §3

HL-60 cells = experiment: HL-60 cell differentiation (NBT reduction); type: cell-based, human; details: GM-CSF 25 ng/ml alone, day 6
Protocol: as §3

T4 sequence (P29351 whole entry, the tested form may be a part): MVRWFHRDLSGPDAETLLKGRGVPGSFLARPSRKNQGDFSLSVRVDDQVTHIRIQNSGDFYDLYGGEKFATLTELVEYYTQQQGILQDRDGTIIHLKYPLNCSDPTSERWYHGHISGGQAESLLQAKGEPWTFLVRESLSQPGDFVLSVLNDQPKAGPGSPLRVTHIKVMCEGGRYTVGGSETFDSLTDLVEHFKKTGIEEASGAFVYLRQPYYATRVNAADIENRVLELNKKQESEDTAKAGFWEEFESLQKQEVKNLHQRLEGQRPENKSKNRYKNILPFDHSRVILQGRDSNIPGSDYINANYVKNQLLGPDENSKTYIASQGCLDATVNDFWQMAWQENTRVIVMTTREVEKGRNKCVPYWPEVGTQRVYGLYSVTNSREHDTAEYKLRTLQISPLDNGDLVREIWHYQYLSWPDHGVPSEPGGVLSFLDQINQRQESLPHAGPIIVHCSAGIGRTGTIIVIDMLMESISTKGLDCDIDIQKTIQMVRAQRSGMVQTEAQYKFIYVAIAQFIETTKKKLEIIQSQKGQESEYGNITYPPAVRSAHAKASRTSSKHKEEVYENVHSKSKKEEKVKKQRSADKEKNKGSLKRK
T3 sequence (O75365 whole entry): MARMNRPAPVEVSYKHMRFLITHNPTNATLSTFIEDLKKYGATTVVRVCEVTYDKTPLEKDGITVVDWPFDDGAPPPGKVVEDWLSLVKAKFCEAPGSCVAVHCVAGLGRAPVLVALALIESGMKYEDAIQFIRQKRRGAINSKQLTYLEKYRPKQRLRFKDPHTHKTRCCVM
T5 sequence (Q12974 whole entry): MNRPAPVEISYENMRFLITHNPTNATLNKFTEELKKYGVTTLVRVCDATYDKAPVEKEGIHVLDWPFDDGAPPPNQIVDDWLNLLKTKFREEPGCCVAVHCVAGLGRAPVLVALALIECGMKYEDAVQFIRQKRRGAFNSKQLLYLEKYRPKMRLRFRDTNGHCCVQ
T2 sequence (Q93096 whole entry): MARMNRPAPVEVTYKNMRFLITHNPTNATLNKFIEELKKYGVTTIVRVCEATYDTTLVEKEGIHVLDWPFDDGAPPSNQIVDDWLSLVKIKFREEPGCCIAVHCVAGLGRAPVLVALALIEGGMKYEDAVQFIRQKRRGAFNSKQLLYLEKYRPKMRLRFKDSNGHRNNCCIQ

Compound	inhibition of MKP1 (MKP1)	retained PRL-1 PTPase activity (PRL-1)	remaining PRL-3 PTPase activity (PRL-3)	inhibitory activity against GSTm8 (GSTm8)	inhibitory activity against SHP-1 (SHP-1)	effectiveness against PRL-2 (PRL-2)	growth inhibition of WM9 cells, single agent (WM9 cells; pentamidine 2.5-5 μg/ml, 6 days)	effect on IFN-alpha-induced growth inhibition of WM9 (WM9 cells; pentamidine, most obviously at 0.625-1.25 μg/ml)	inhibition at 40 µg/mL (WM9 cells; Homo sapiens, WM9, 144 h, read-out: growth inhibition of WM9 cells, single agent)	effect on IFN-alpha activity in WM9 (WM9 cells; ketoconazole 40 μg/ml)	activity against WM9 cells, single agent or with IFN-alpha (WM9 cells; ketoconazole 0.625-20 μg/ml, 6 days)	effect on NB4 cell differentiation (NB4 cells; GM-CSF alone)	augmentation of sodium stibogluconate-induced NB4 differentiation (NB4 cells; GM-CSF with sodium stibogluconate)	maximal increase of NBT-positive U937 cells (U937 cells)	maximal increase of NBT-positive HL-60 cells (HL-60 cells)
N=C(N)c1ccc(OCCCCCOc2ccc(C(=N)N)cc2)cc1 [pentamidine]	substantial inhibition	70-80%	20-30%	no obvious inhibitory activity	no obvious inhibitory activity	not effective	86-97%	augmented IFN-alpha-induced growth inhibition	–	–	–	–	–	–	–
CC(=O)N1CCN(c2ccc(OCC3COC(Cn4ccnc4)(c4ccc(Cl)cc4Cl)O3)cc2)CC1 (centres unmarked) [ketoconazole]	–	60-70%	25-40%	no obvious inhibitory activity	no obvious inhibitory activity	not effective	–	–	67%	minor augmenting effect	no apparent activity	–	–	–	–
GM-CSF: recombinant human granulocyte/macrophage colony stimulating factor	–	–	–	–	–	–	–	–	–	–	–	no detectable effect	failed to augment	8-10%	8-10%
